Measurements reported in US8143212B2 (Vicuron Pharmaceuticals Inc., priority 2002, dated 2012).

System: S. aureus
Assay: Murine thigh-infection model (time kill, dosing regimen, PK/PD; Tables 31, 32);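 further: mouse thigh infection, bacterial counts per thigh after therapy, dose-response curves fitted with a maximum effect model to give static and 1 or 2 log kill exposures, mean of 4 thighs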
Conditions: for 1 log kill mg/kg / 2 log kill mg/kg: total dose over 6 days
Protocol: The murine thigh-infection model was used for all organisms throughout the various studies. In this well-established model, approximately 10^6 Cfu of the study organisms are injected into one or both thighs (in 0.1 ml) two hours before starting therapy. The number of organisms in the thigh at the start of therapy in the following studies varied from 10^7.15-7.59 cfu/thigh.
Each point represents the mean of 4 thighs. Five dose levels, ranging 16-fold were used. The dose levels used in the study against S. aureus ranged from 5 to 80 mg/kg.
In these studies, multiple dosing regimens varying the dose and dosage interval were administered intraperitoneally in 0.2 ml volumes to groups of mice for 144 h (6 days). The dosing intervals chosen were 12, 24, 36, and 72 hours. Five different doses (two-fold increases) were used. Study against S. aureus utilized total dose (mg/kg/6d) levels ranging from 30 to 480 mg/kg/6d. […] Each point represents the mean of 4 thighs.
Each of the dose-response curves was also mathematically characterized using a maximum effect model. […] From these parameters we could then calculate the dose required to produce a net bacteriostatic effect over the 144 hour treatment period as well as the doses necessary to produce a 1 and 2 log-reduction in organism burden.
We determined which PK/PD parameter correlated best with efficacy by relating the number of bacteria in thigh at the end of 144 hours of therapy with [1] the peak/MIC ratio, [2] the AUC/MIC ratio, and [3] the percentage of the dosing interval that serum levels exceed the MIC for each of the dosage regimens studied. The PK/PD parameter values for those doses not specifically studied were extrapolated from the values of the nearest studied doses. […] Each point represents the mean of four thighs. […] The data illustrated in these figures were also analyzed by the same maximum dose-response model mentioned above, except that the different PK/PD parameters were used in place of the dose. The R^2 represents the coefficient of determination observed for the relationship between efficacy and each PK/PD parameter.

Q: What does the source list for CN[C@H]1C(=O)N[C@@H]2Cc3ccc(cc3)Oc3cc4cc(c3O[C@@H]3O[C@H](C(=O)O)[C@@H](O)[C@H](O)[C@H]3NC(=O)CCCCCCCCC(C)C)Oc3ccc(cc3Cl)[C@@H](O)[C@@H]3NC(=O)[C@H](NC(=O)[C@@H]4NC(=O)[C@@H](NC2=O)c2cc(cc(O)c2Cl)Oc2cc1ccc2O)c1ccc(O)c(c1)-c1c(O[C@H]2O[C@H](CO)[C@@H](O)[C@H](O)[C@@H]2O)cc(O)cc1[C@@H](C(=O)NCCCN(C)C)NC3=O [Dalbavancin]?
A: 2 Log Kill f24AUC/MIC (SA25923, q 72 h regimen): 367; 2 Log Kill mg/kg/24 h (SA25923, q 72 h regimen): 214 mg/kg/24 h; Static Effect f24AUC/MBC (SA25923, q 72 h regimen): 66; Static Effect f24AUC/MIC (SA25923, q 72 h regimen): 274; Static Effect mg/kg/72 h (SA25923, q 72 h regimen): 160 mg/kg/72 h; 1 log kill mg/kg (SA29213, q 24 h): 267 mg/kg; 1 log kill mg/kg (SA29213, q 36 h): 36 mg/kg; 2 log kill mg/kg (SA29213, q 36 h): 122 mg/kg; 1 log kill mg/kg (SA29213, q 72 h): 31 mg/kg; 2 log kill mg/kg (SA29213, q 72 h): 128 mg/kg; Static Effect f24AUC/MBC (SA31005, q 24 h regimen): 242; Static Effect f24AUC/MIC (SA31005, q 24 h regimen): 483; Static Effect mg/kg/24 h (SA31005, q 24 h regimen): 49.3 mg/kg/24 h; 1 Log Kill f24AUC/MBC (SA31005, q 72 h regimen): 163; 1 Log Kill f24AUC/MIC (SA31005, q 72 h regimen): 325; 1 Log Kill mg/kg/24 h (SA31005, q 72 h regimen): 94.6 mg/kg/24 h; 2 Log Kill f24AUC/MBC (SA31005, q 72 h regimen): 217; 2 Log Kill f24AUC/MIC (SA31005, q 72 h regimen): 364; 2 Log Kill mg/kg/24 h (SA31005, q 72 h regimen): 127 mg/kg/24 h; Static Effect f24AUC/MBC (SA31005, q 72 h regimen): 112; Static Effect f24AUC/MIC (SA31005, q 72 h regimen): 223; Static Effect mg/kg/72 h (SA31005, q 72 h regimen): 67.7 mg/kg/72 h; 1 Log Kill f24AUC/MBC (SA33591, q 24 h regimen): 58.3; 1 Log Kill f24AUC/MIC (SA33591, q 24 h regimen): 121; 1 Log Kill mg/kg/24 h (SA33591, q 24 h regimen): 27.7 mg/kg/24 h; 2 Log Kill f24AUC/MBC (SA33591, q 24 h regimen): 74.3; 2 Log Kill f24AUC/MIC (SA33591, q 24 h regimen): 157; 2 Log Kill mg/kg/24 h (SA33591, q 24 h regimen): 33.5 mg/kg/24 h; Static Effect f24AUC/MBC (SA33591, q 24 h regimen): 46; Static Effect f24AUC/MIC (SA33591, q 24 h regimen): 96.2; Static Effect mg/kg/24 h (SA33591, q 24 h regimen): 22.3 mg/kg/24 h; 1 Log Kill f24AUC/MBC (SA33591, q 72 h regimen): 76.6; 1 Log Kill f24AUC/MIC (SA33591, q 72 h regimen): 160; 1 Log Kill mg/kg/24 h (SA33591, q 72 h regimen): 93 mg/kg/24 h; 2 Log Kill f24AUC/MBC (SA33591, q 72 h regimen): 94; 2 Log Kill f24AUC/MIC (SA33591, q 72 h regimen): 195; 2 Log Kill mg/kg/24 h (SA33591, q 72 h regimen): 114 mg/kg/24 h; Static Effect f24AUC/MBC (SA33591, q 72 h regimen): 59; Static Effect f24AUC/MIC (SA33591, q 72 h regimen): 123; Static Effect mg/kg/72 h (SA33591, q 72 h regimen): 74 mg/kg/72 h; 1 Log Kill f24AUC/MBC (SA307109, q 72 h regimen): 12.9; 1 Log Kill f24AUC/MIC (SA307109, q 72 h regimen): 108; 1 Log Kill mg/kg/24 h (SA307109, q 72 h regimen): 34 mg/kg/24 h; 2 Log Kill f24AUC/MBC (SA307109, q 72 h regimen): 14.6; 2 Log Kill f24AUC/MIC (SA307109, q 72 h regimen): 121; 2 Log Kill mg/kg/24 h (SA307109, q 72 h regimen): 37 mg/kg/24 h; Static Effect f24AUC/MBC (SA307109, q 72 h regimen): 11.3; Static Effect f24AUC/MIC (SA307109, q 72 h regimen): 94; Static Effect mg/kg/72 h (SA307109, q 72 h regimen): 31 mg/kg/72 h; 1 Log Kill f24AUC/MBC (SA Smith, q 24 h regimen): 119; 1 Log Kill f24AUC/MIC (SA Smith, q 24 h regimen): 248; 1 Log Kill mg/kg/24 h (SA Smith, q 24 h regimen): 50.7 mg/kg/24 h; 2 Log Kill f24AUC/MBC (SA Smith, q 24 h regimen): 173; 2 Log Kill f24AUC/MIC (SA Smith, q 24 h regimen): 361; 2 Log Kill mg/kg/24 h (SA Smith, q 24 h regimen): 73.5 mg/kg/24 h; Static Effect f24AUC/MBC (SA Smith, q 24 h regimen): 75; Static Effect f24AUC/MIC (SA Smith, q 24 h regimen): 156; Static Effect mg/kg/24 h (SA Smith, q 24 h regimen): 33.5 mg/kg/24 h; 1 Log Kill f24AUC/MBC (SA Smith, q 72 h regimen): 78.0; 1 Log Kill f24AUC/MIC (SA Smith, q 72 h regimen): 163; 1 Log Kill mg/kg/24 h (SA Smith, q 72 h regimen): 95 mg/kg/24 h; 2 Log Kill f24AUC/MBC (SA Smith, q 72 h regimen): 22; 2 Log Kill f24AUC/MIC (SA Smith, q 72 h regimen): 254; 2 Log Kill mg/kg/24 h (SA Smith, q 72 h regimen): 148 mg/kg/24 h; Static Effect f24AUC/MBC (SA Smith, q 72 h regimen): 46.1; Static Effect f24AUC/MIC (SA Smith, q 72 h regimen): 96; Static Effect mg/kg/72 h (SA Smith, q 72 h regimen): 59 mg/kg/72 h; drop in cfu (all strains, 6 day study): > 4 log10; free drug 24 h AUC/MIC associated with a static effect (every 24 h dosing): 265±143; free drug 24 h AUC/MIC associated with a static effect (every 72 h dosing): 160±67; free drug AUC/MIC required for efficacy (over the 6 days): ~1000; extent of killing (single doses, highest doses studied): > 2 log
